This note sets out measurements from ChEMBL document CHEMBL1201862, “PubChem BioAssay data set” (2004).

Test systems include SR; HCT-15; HCT-116; Malme-3M; SK-OV-3; MDA-MB-435; 786-0; SF-295; DMS-114; A549; K562; ACHN; NCI-H522; OVCAR-8; COLO 205; HL-60; SW-620; M14; DMS-273; NCI-H23.
Common to all, as to assay: NCI tumour cell line growth inhibition, 48 h

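Compound exposure: 48 hours, 5 concentrations, 96-well plates. GI50 = concentration required for 50% inhibition of growth.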 Calls of active or inactive are those of the source. No stated cut-off is given here; in the data, active = GI50 up to about 1.1 µM and inactive = higher. A value given as a limit tells only on which side of the number the result lay.

For the compound `Cn1c2ccccc2c(=O)c2c(O)cc3c(c21)CC(C1(C)CO1)O3` (stereo not given), the GI50 was 0.111 µM (active) with SR; 4.69 µM in the experiment on HCT-15; 0.935 µM (active) in the experiment on HCT-116; 10.5 µM (inactive) in the experiment on Malme-3M; 5.53 µM (inactive) in the experiment on SK-OV-3; 1.64 µM (inactive) with MDA-MB-435. Moreover, the GI50 with 786-0 is 1.71 µM (inactive); in the experiment with SF-295, 9.44 µM (inactive); in the experiment on DMS-114, 2.13 µM (inactive); with A549, 5.16 µM (inactive); with K562, 0.26 µM (active); with ACHN, 2 µM (inactive). The GI50 with NCI-H522 is 2.93 µM (inactive); in the experiment with OVCAR-8, 0.966 µM (active); in the experiment with COLO 205, 6.1 µM (inactive); with HL-60, 0.0495 µM (active); in the experiment with SW-620 it was 1.17 µM (inactive); in the experiment with M14 it was 1.51 µM (inactive). Further, the GI50 is 21.9 µM (inactive) with DMS-273 and 2.02 µM (inactive) with NCI-H23.
As to `COc1c(OC2OC(CO)C(O)C(O)C2O)cc2c(c1OC)-c1ccc(OC)c(=O)cc1[C@@H](NC(C)=O)CC2` (stereo not given in full), the GI50 with SR was > 100 µM (inactive); with HCT-15 it was above 100 µM; in the experiment on HCT-116, > 100 µM (inactive); in the experiment on Malme-3M it was 61.5 µM (inactive); in the experiment on SK-OV-3, > 100 µM (inactive); with 786-0, > 100 µM (inactive). Further, the GI50 in the experiment with SF-295 is > 89.7 µM (inactive); in the experiment with DMS-114, 44.7 µM (inactive); with A549, > 100 µM (inactive); in the experiment with K562, 52.1 µM (inactive); in the experiment on ACHN, > 100 µM (inactive); with NCI-H522, 43.8 µM (inactive). For the same compound, the GI50 is > 100 µM (inactive) in the experiment on OVCAR-8; > 100 µM (inactive) with COLO 205; > 70.8 µM (inactive) with HL-60; > 81.8 µM (inactive) with SW-620; 76.4 µM (inactive) in the experiment with M14; > 100 µM (inactive) in the experiment on DMS-273. Moreover, the GI50 with NCI-H23 is > 100 µM (inactive).
Turning to `O=[N+]([O-])c1cccc(S(=O)(=O)N/N=C/c2cc(I)cc([N+](=O)[O-])c2O)c1`, the GI50 was 26.9 µM (inactive) in the experiment on SR; 24.5 µM with HCT-15; 27.9 µM (inactive) in the experiment with HCT-116; 25.9 µM (inactive) in the experiment with Malme-3M; 26.5 µM (inactive) in the experiment on SK-OV-3; 31.8 µM (inactive) in the experiment on 786-0. The GI50 in the experiment with SF-295 is 32.7 µM (inactive); in the experiment on DMS-114 it was 21.6 µM (inactive); in the experiment with A549 it was > 100 µM (inactive); with K562 it was 29.8 µM (inactive); in the experiment on ACHN, 31.5 µM (inactive); with NCI-H522 it was 18.8 µM (inactive). The GI50 in the experiment on OVCAR-8 was 25.6 µM (inactive); in the experiment with COLO 205, 16.5 µM (inactive); with HL-60 it was 21.3 µM (inactive); with SW-620 it was 22 µM (inactive); in the experiment on M14, 27.2 µM (inactive); with DMS-273 it was 25.6 µM (inactive). The GI50 in the experiment with NCI-H23 is 22 µM (inactive).
Turning to `Cc1ccccc1C(C#N)/C(=N/NC(=O)c1cc2ccccc2cc1O)C(=O)Nc1cccc(Cl)c1` (stereo not given), the GI50 with SR was 12.6 µM (inactive); in the experiment on HCT-15, 22.4 µM; in the experiment on HCT-116, 14.5 µM (inactive); in the experiment with Malme-3M, 30.8 µM (inactive); in the experiment on SK-OV-3, 41.8 µM (inactive); in the experiment on 786-0 it was 7.85 µM (inactive). The GI50 was 21.1 µM (inactive) in the experiment on SF-295; 17.2 µM (inactive) with DMS-114; 18 µM (inactive) with A549; 9.64 µM (inactive) with K562; 16.4 µM (inactive) with ACHN; 20.9 µM (inactive) with NCI-H522. In addition, the GI50 with OVCAR-8 was 8.85 µM (inactive); in the experiment on COLO 205, 24.4 µM (inactive); in the experiment with HL-60, 3.72 µM (inactive); with SW-620 it was 7.85 µM (inactive); with M14, 18.6 µM (inactive); with DMS-273 it was 6.75 µM (inactive). The GI50 in the experiment with NCI-H23 is 12.4 µM (inactive).
Take `O=C1C(N2C(=O)c3ccccc3C2=O)CN1C(COCc1ccccc1)c1ccc(OCc2ccccc2)cc1` (stereo not given): the GI50 in the experiment on SR was > 100 µM (inactive); in the experiment on HCT-15 it was above 100 µM; with HCT-116, > 100 µM (inactive); in the experiment with Malme-3M it was > 100 µM (inactive); in the experiment with SK-OV-3, > 100 µM (inactive); in the experiment with 786-0, > 100 µM (inactive). Moreover, the GI50 in the experiment on SF-295, in the experiment with DMS-114, in the experiment with A549, with K562, in the experiment with ACHN and in the experiment with NCI-H522 was > 100 µM (inactive) throughout. The GI50 in the experiment with OVCAR-8, in the experiment on COLO 205, in the experiment on HL-60, with SW-620, in the experiment with M14 and in the experiment on DMS-273 was > 100 µM (inactive) throughout. Further, in the experiment on NCI-H23, the GI50 was > 100 µM (inactive).
With `COc1ccc(-c2nc3c(nc2-c2ccc(OC)cc2)N(C)S(=O)(=O)N=C3N)cc1`, the GI50 is 9.89 µM (inactive) with SR; 32.4 µM in the experiment with HCT-15; 15 µM (inactive) in the experiment on HCT-116; 22.7 µM (inactive) in the experiment with Malme-3M; 24.6 µM (inactive) with SK-OV-3; 16.9 µM (inactive) with 786-0. For the same compound, the GI50 in the experiment with SF-295 is 22.3 µM (inactive); with DMS-114, 17.3 µM (inactive); with A549, 27 µM (inactive); in the experiment on K562 it was 24.4 µM (inactive); with ACHN it was 19.1 µM (inactive); with NCI-H522, 9.59 µM (inactive). The GI50 in the experiment on OVCAR-8 is 34.2 µM (inactive); in the experiment on COLO 205 it was 14.7 µM (inactive); in the experiment with HL-60, 15.9 µM (inactive); in the experiment on SW-620, 28.8 µM (inactive); in the experiment with M14, 34.4 µM (inactive); in the experiment on DMS-273 it was 41.6 µM (inactive). Besides, the GI50 with NCI-H23 was 28.7 µM (inactive).
Regarding `CC[C@@]1(O)C(=O)OCc2c1c(Cl)c1n(c2=O)Cc2cc3ccccc3nc2-1`, the GI50 in the experiment on SR is 0.27 µM (active); in the experiment on HCT-15, 7.98 µM; in the experiment on HCT-116 it was 1.36 µM (inactive); in the experiment on Malme-3M, 4.53 µM (inactive); with SK-OV-3, 4.24 µM (inactive); with MDA-MB-435, 8.95 µM (inactive). The GI50 with 786-0 is 1.22 µM (inactive); with SF-295 it was 1.22 µM (inactive); with DMS-114, 1.35 µM (inactive); in the experiment with A549, 2.06 µM (inactive); in the experiment with K562 it was 2.1 µM (inactive); in the experiment on ACHN, 1.16 µM (inactive). The GI50 in the experiment on NCI-H522 is 1.69 µM (inactive); in the experiment with OVCAR-8 it was 3.05 µM (inactive); in the experiment with COLO 205, 5.52 µM (inactive); in the experiment on HL-60 it was 2.19 µM (inactive); in the experiment on SW-620, 1.95 µM (inactive); with M14, 2 µM (inactive). Besides, the GI50 in the experiment with DMS-273 was 0.605 µM (active); with NCI-H23, 2.05 µM (inactive).
